Experimental findings from patent US12441768B2, “Compositions and methods for treating endometriosis” (EndoMet Biosciences, Inc., priority 2018, dated 2025) are described below.

Each structure is given as a SMILES string. Where a SMILES comes first, the peptide text is derived from it.

Data set [1] addresses Wnt-responsive promoter (TCF/LEF). Kind of data set: Wnt-dependent luciferase reporter assay. Type of data set: cell-based, murine. In short, it runs like this:
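Murine 3T3 fibroblasts carrying a TCF/LEF-driven luciferase reporter, stimulated with Wnt3a in the presence of increasing peptide concentrations or vehicle. Luminescence inhibition gave EC50 values in uM.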

In the next data set the target is T1, β-catenin (Homo sapiens, UniProt P35222).
T1 sequence (P35222 1-781): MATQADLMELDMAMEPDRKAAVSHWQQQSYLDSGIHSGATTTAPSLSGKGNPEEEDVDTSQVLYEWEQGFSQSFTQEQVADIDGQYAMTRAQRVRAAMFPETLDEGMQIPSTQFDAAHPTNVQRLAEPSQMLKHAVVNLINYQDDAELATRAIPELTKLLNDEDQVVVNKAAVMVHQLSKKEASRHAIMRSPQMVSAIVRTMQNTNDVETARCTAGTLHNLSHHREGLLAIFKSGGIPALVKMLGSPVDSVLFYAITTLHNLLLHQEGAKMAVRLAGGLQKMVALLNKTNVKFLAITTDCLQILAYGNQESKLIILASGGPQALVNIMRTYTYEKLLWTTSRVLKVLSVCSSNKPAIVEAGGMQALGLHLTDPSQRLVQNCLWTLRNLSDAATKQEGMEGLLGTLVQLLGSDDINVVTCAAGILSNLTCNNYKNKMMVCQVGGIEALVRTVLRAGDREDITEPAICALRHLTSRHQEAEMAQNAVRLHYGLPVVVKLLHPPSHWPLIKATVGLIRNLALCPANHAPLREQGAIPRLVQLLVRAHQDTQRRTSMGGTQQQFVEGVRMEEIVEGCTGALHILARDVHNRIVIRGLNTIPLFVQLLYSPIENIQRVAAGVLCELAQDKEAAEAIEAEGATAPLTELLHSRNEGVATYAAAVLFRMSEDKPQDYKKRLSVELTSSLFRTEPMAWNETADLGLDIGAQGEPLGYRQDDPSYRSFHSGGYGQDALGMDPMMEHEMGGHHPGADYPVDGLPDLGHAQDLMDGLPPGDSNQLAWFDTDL
Nature of the data set: KD50 measurement using competitive fluorescence polarization (FP) with labelled TCF4. The format is binding. Conditions: fluorescence polarization, β-catenin; for Kd: read-out: β-Cat FP KD. Summed up:
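5 nM labelled TCF4 was combined with 100 nM β-catenin at room temperature, then inhibitor was titrated in serial dilutions from 10 nM to 30 uM. Polarization was read at excitation 470 nm, emission 520 nm; displacement lowers the signal. Three independent experiments.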

The conditions of data set [2]: % Viability non-Wnt responsive cells.

As a reminder, the EC50 is the concentration needed to bring the measured effect to its halfway point. Higher therefore signals a need for much substance. The Kd is a measure of binding affinity in units of concentration. Usually viability stands for a read-out of living cells in per cent, often relative to untreated cells. Regarding `CC[C@H](C)[C@@H]1NC(=O)[C@H](CC(C)C)NC(=O)[C@H](Cc2ccccc2)NC(=O)[C@H](Cc2c[nH]c3ccccc23)NC(=O)[C@@H](N)CCCCNC(=O)CNC(=O)CC[C@@H](C(=O)NCC(=O)O)NC(=O)[C@H](Cc2c[nH]c3ccccc23)NC(=O)[C@H](Cc2ccccc2)NC(=O)[C@H](CS)NC1=O` [compound 174] (HELM PEPTIDE1{K.W.F.L.I.C.F.W.E.G}|CHEM1{[O=C(CN[*:2])[*:1]]}$PEPTIDE1,CHEM1,1:R3-1:R1|PEPTIDE1,CHEM1,9:R3-1:R2$$$V2.0), the EC50 in data set [1] was in the range of 7.5 to 15 µM. On β-catenin, the “β-Cat FP Hill slope” value is listed as 0.7 and the Kd fell in the range of 1 to 10 µM. Besides, the viability in data set [2] was 102%.
`CSCC[C@H](NC(=O)[C@H](CCCNC(=N)N)NC(=O)[C@H](CO)NC(=O)[C@@H](N)CCSC)C(=O)N[C@@H](Cc1c[nH]c2ccccc12)C(=O)N[C@@H](Cc1ccccc1)C(=O)N[C@@H](CC(C)C)C(=O)N[C@H](C(=O)N[C@@H](CO)C(=O)N[C@@H](Cc1ccccc1)C(=O)N[C@@H](Cc1c[nH]c2ccccc12)C(=O)NCC(=O)O)[C@@H](C)O` [compound 62] (H-MSRMWFLTSFWG-OH) registered an EC50 in data set [1] above 30 µM. In addition, at β-catenin, the dissociation constant (Kd) was above 30 µM. In data set [2], the viability came out at 104%.
For the compound `CC[C@H](C)[C@H](NC(=O)[C@H](CC(C)C)NC(=O)[C@H](Cc1ccccc1)NC(=O)[C@H](Cc1c[nH]c2ccccc12)NC(=O)[C@@H](NC(=O)[C@H](CCCNC(=N)N)NC(=O)[C@H](CO)NC(=O)[C@@H](N)CCSC)[C@@H](C)O)C(=O)N[C@@H](CO)C(=O)N[C@@H](Cc1ccccc1)C(=O)N[C@@H](Cc1c[nH]c2ccccc12)C(N)=O` [compound 76] (H-MSRTWFLISFW-NH2), the EC50 in data set [1] is above 30 µM. For the same compound, on β-catenin, the Kd is above 30 µM. Also, in data set [2], the viability worked out at 105%.
In turn, `CC[C@H](C)[C@H](NC(=O)[C@H](CC(C)C)NC(=O)[C@H](Cc1ccccc1)NC(=O)[C@H](Cc1c[nH]c2ccccc12)NC(=O)[C@@H](N)CCSC)C(=O)N[C@@H](CO)C(=O)N[C@@H](Cc1ccccc1)C(=O)N[C@@H](Cc1c[nH]c2ccccc12)C(=O)N(C)[C@@H](C)C(=O)NCC(=O)O` [compound 45] (HELM PEPTIDE1{M.W.F.L.I.S.F.W.[meA].G}$$$$V2.0) returned a concentration for a half-maximal effect (EC50) in data set [1] below 7.5 µM. Further, on β-catenin, the “β-Cat FP Hill slope” value amounted to 0.9 and the equilibrium dissociation constant (Kd) fell in the range of 0.4 to 1 µM. Further, the viability in data set [2] is 101%.
In the case of `CC[C@H](C)[C@@H]1NC(=O)[C@H](CC(C)C)NC(=O)[C@H](CC(C)C)NC(=O)[C@H](Cc2c[nH]c3ccccc23)NC(=O)[C@@H](N)CCCCNC(=O)C[C@@H](C(=O)O)NC(=O)[C@H](Cc2c[nH]c3ccccc23)NC(=O)[C@H](C)NC(=O)[C@H](CO)NC1=O` [compound 206] (HELM PEPTIDE1{K.W.L.L.I.S.A.W.D}$PEPTIDE1,PEPTIDE1,1:R3-9:R3$$$V2.0), the concentration for a half-maximal effect (EC50) in data set [1] fell in the range of 15 to 22.5 µM. At β-catenin, the Kd is above 30 µM. Also, the viability in data set [2] worked out at 98.7%.
For `CC[C@H](C)[C@H](NC(=O)[C@H](CC(C)C)NC(=O)[C@H](Cc1ccccc1)NC(=O)[C@H](Cc1c[nH]c2ccccc12)NC(=O)[C@H](Cc1c[nH]c2ccccc12)NC(=O)[C@H](CCCNC(=N)N)NC(=O)[C@H](CO)NC(=O)[C@@H](N)CCCCN)C(=O)N[C@@H](CO)C(=O)N[C@@H](Cc1ccccc1)C(=O)N[C@@H](Cc1c[nH]c2ccccc12)C(N)=O` [compound 95] (H-KSRWWFLISFW-NH2) the same measures were above 30 µM, above 30 µM and 109%.
As to `CC[C@H](C)[C@H](NC(=O)[C@H](CC(C)C)NC(=O)[C@H](Cc1ccccc1)NC(=O)[C@H](Cc1c[nH]c2ccccc12)NC(=O)[C@H](CCSC)NC(C)=O)C(=O)N[C@@H](CS)C(=O)N[C@@H](Cc1ccccc1)C(=O)N[C@@H](Cc1c[nH]c2ccccc12)C(=O)NCCCC(=O)O` [compound 197] (HELM PEPTIDE1{[ac].M.W.F.L.I.C.F.W.[O=C(O)CCCN[*:1]]}$$$$V2.0), the EC50 in data set [1] was below 7.5 µM. At β-catenin, the “β-Cat FP Hill slope” value came out at 1.52 and the Kd fell in the range of 0.4 to 1 µM. The viability in data set [2] stood at 89.8%.
The compound `CC[C@H](C)[C@H](NC(=O)[C@H](CC(C)C)NC(=O)[C@H](Cc1ccccc1)NC(=O)[C@H](Cc1c[nH]c2ccccc12)NC(=O)[C@H](CCSC)NC(C)=O)C(=O)N[C@@H](CS)C(=O)N[C@@H](Cc1ccccc1)C(=O)N[C@@H](Cc1c[nH]c2ccccc12)C(=O)NCC(=O)O` [compound 198] (Ac-MWFLICFWG-OH) showed a concentration giving a half-maximal response (EC50) in data set [1] below 7.5 µM. For the same compound, at β-catenin, the “β-Cat FP Hill slope” value was found to be 2.18 and the equilibrium dissociation constant (Kd) lay within 0.4 to 1 µM. Moreover, in data set [2], the viability is 81.4%.
For `CC[C@H](C)[C@H](NC(=O)[C@H](CC(C)C)NC(=O)C(C)(Cc1ccccc1)NC(=O)[C@H](Cc1c[nH]c2ccccc12)NC(=O)[C@@H](N)CCSC)C(=O)N[C@@H](CS)C(=O)N[C@@H](Cc1ccccc1)C(=O)N[C@@H](Cc1c[nH]c2ccccc12)C(=O)NCC(=O)O` (some centres unmarked) [compound 131] (HELM PEPTIDE1{M.W.[CC(Cc1ccccc1)(N[*:1])C(=O)[*:2]].L.I.C.F.W.G}$$$$V2.0) the same measures were 7.5 to 15 µM, 1.27, below 0.4 µM and 93.1%.
`CC[C@H](C)[C@H](NC(=O)[C@H](CC(C)C)NC(=O)[C@H](Cc1ccccc1)NC(=O)[C@H](Cc1c[nH]c2ccccc12)NC(=O)[C@@H](N)CCSC)C(=O)N[C@@H](CS)C(=O)N[C@@H](Cc1ccccc1)C(=O)N[C@@H](Cc1c[nH]c2ccccc12)C(=O)NCC(=O)O` [compound 154] (H-MWFLICFWG-OH) registered an EC50 in data set [1] of 15 to 22.5 µM. Further, the Kd on β-catenin is above 30 µM. Also, the viability in data set [2] is 103%.
As to `CC[C@H](C)[C@H](NC(=O)[C@H](CC(C)C)NC(=O)[C@H](CC1CCCCC1)NC(=O)[C@H](Cc1c[nH]c2ccccc12)NC(=O)[C@H](CCSC)NC(C)=O)C(=O)N[C@@H](CO)C(=O)N[C@@H](Cc1ccccc1)C(=O)N[C@@H](Cc1c[nH]c2ccccc12)C(=O)NCC(=O)O` [compound 216] (HELM PEPTIDE1{[ac].M.W.[Cha].L.I.S.F.W.G}$$$$V2.0), in data set [1], the EC50 is below 7.5 µM. On β-catenin, the “β-Cat FP Hill slope” value was found to be 1.35 and the Kd was 0.4 to 1 µM. For the same compound, the viability in data set [2] was found to be 100%.
For `CC[C@H](C)[C@H](NC(=O)[C@H](Cc1c[nH]c2ccccc12)NC(=O)[C@@H](N)CCSC)C(=O)N[C@@H](CC(C)C)C(=O)N[C@H](C(=O)N[C@@H](C(=O)N[C@@H](Cc1ccccc1)C(=O)N[C@@H](Cc1c[nH]c2ccccc12)C(=O)NCC(=O)O)[C@H](C)O)[C@@H](C)CC` [compound 137] (HELM PEPTIDE1{M.W.I.L.I.[dT].F.W.G}$$$$V2.0) the same measures were 15 to 22.5 µM, 0.81, 0.4 to 1 µM and 93.9%.
For `CC[C@H](C)[C@H](NC(=O)[C@H](CC(C)C)NC(=O)[C@H](Cc1ccccc1)NC(=O)[C@H](Cc1c[nH]c2ccccc12)NC(=O)[C@@H](N)CCSC)C(=O)N[C@@H](CS)C(=O)N[C@@H](Cc1c[nH]cn1)C(=O)N[C@@H](Cc1c[nH]c2ccccc12)C(=O)NCC(=O)O` [compound 145] (H-MWFLICHWG-OH) the same measures were 7.5 to 15 µM, 0.7, 1 to 10 µM and 107%.
With `CC[C@H](C)[C@H](NC(=O)[C@H](CC(C)C)NC(=O)[C@H](Cc1ccccc1)NC(=O)[C@H](Cc1c[nH]c2ccccc12)NC(=O)[C@H](CCSC)NC(=O)[C@H](CCCNC(=N)N)NC(=O)[C@H](CO)NC(=O)[C@@H](N)Cc1c[nH]cn1)C(=O)N[C@@H](CO)C(=O)N[C@@H](Cc1ccccc1)C(=O)N[C@@H](Cc1c[nH]c2ccccc12)C(N)=O` [compound 89] (H-HSRMWFLISFW-NH2), in data set [1], the concentration for a half-maximal effect (EC50) was above 30 µM. The Kd at β-catenin was above 30 µM. The viability in data set [2] came to 107%.
`CC[C@H](C)[C@@H]1NC(=O)[C@H](CC(C)C)NC(=O)[C@H](C(C)(C)C)NC(=O)[C@H](Cc2c[nH]c3ccccc23)NC(=O)[C@@H](N)CCCCNC(=O)C[C@@H](C(=O)O)NC(=O)[C@H](Cc2c[nH]c3ccccc23)NC(=O)[C@H](C)NC(=O)[C@H](CO)NC1=O` [compound 205] (HELM PEPTIDE1{K.W.[CC(C)(C)[C@H](N[*:1])C(=O)[*:2]].L.I.S.A.W.D}$PEPTIDE1,PEPTIDE1,1:R3-9:R3$$$V2.0) had an EC50 in data set [1] above 30 µM. The Kd on β-catenin was above 30 µM. The viability in data set [2] came to 114%.
